Patent publication US4780238A (priority 1985, dated 1988)

System: P. aeruginosa
Type: cell-based, Pseudomonas aeruginosa

SMILES: O=[N+]([O-])[O-].O=[N+]([O-])[O-].O=[N+]([O-])[O-].O=[N+]([O-])[O-].[Th+4] [Th(NO3)4, thorium nitrate]
- lag period of the organism: the lag period of the organism also increased

SMILES: O=[N+]([O-])[O-].O=[N+]([O-])[O-].[O]=[U+2]=[O] [uranyl nitrate]
- inhibitory effect on growth: stronger inhibitory effect on growth of the organism than thorium
